Measurements published in patent US12624018B1, “Inhibitors of RIPK2 and medical uses thereof” (Odyssey Therapeutics, Inc., priority 2022, dated 2026).

Assays:
human NOD2 signaling = experiment: Inhibition of human NOD2 signaling in HEK-Blue-hNOD2 cells (L18-MDP stimulated, SEAP reporter); type: cell-based; conditions: Homo sapiens, HEK-Blue hNOD2, HEK-Blue-hNOD2 cells, NOD2 ligand stimulation, SEAP reporter; read-out: hNOD2 IC50
Summary of the method: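 Read-out is SEAP absorbance at 620 nm after 3 h QUANTI-Blue development of supernatant from HEK293 cells carrying NOD2 and a SEAP reporter (12500/well). Cells got compound (10 points, 3-fold dilutions) and 0.5 ng/mL L18-MDP for 24 h at 37 °C; percent inhibition vs stimulated/unstimulated controls, 4-parameter IC50.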

[1] = system: RIPK2 activity in vivo, as measured by plasma levels of cytokine MCP-1; experiment: In vivo inhibition of monocyte chemoattractant protein-1 (MCP-1), acute mouse MDP challenge; conditions: female C57BL/6 mice, plasma 2 h after MDP
Protocol: The compounds of the disclosure were tested for their ability to inhibit RTPK2 activity in vivo, as measured by plasma levels of cytokine MCP-1. C57BL/6 mice were dosed orally with the compounds of the disclosure one hour prior to intra-peritoneal administration of muramyldipeptide (MDP), a NOD2 agonist. Intraperitoneal (i.p.) injection of MDP in mice induces an increase in circulating levels of proinflammatory cytokines, such as MCP-1, in a RIPK2-dependent manner. This acute mouse MDP challenge represents a screening model to measure the ability of compounds to inhibit RIPK2 in vivo.
Materials: Female C57BL/6 mice (6-13 weeks of age) were purchased from the Jackson Laboratory. All mice were maintained under a 12 h light/dark cycle and had food and water ad libitum. Muramyldipeptide (MDP) was purchased from Invivogen (catalog No. tlrl-mdp; lot No. 6231-43-02). Mouse MCP-1 was measured using U-PLEX MSD kit (Meso Scale Discovery (MSD), catalog No. K15069M-2). Carboxymethyl cellulose was purchased from Sigma-Aldrich (catalog No. C5678-500 ml), Tween80 was purchased from Sigma-Aldrich (catalog No. P1754-500 ml), (Hydroxypropyl)-β-cyclodextrin (HP-β-CD) was purchased from Sigma-Aldrich (catalog No. C332607-500G), PBS was purchased from Thermo Fisher Scientific (catalog No. 14190250).
The vehicle was prepared by mixing carboxymethyl cellulose and Tween80 to achieve a final solution of 0.5% CMC or 20% HP-β-CD in water. The compounds of the disclosure were weighed out and mixed with the vehicle to yield final working suspensions. Working suspensions of the compounds were prepared once at the beginning of the study, and vortexed and sonicated prior to each dosing to ensure the material was in fine suspension.
Mice were acclimated to the facility for at least 5 days before the start of the study. On day 0, mice were weighed and assigned to groups in a balanced manner to achieve similar average weight across the groups at the start of the study. On day 0, hour −1 (1 hours before MDP injection), all mice were given a single p.o. dose with vehicle or a compound of the disclosure. At hour 0 (1 hour after dosing), mice were injected intraperitoneally (IP) with 8 mpk MDP in PBS. Two hours after MDP injection (3 hours after drug treatment), blood was collected via cardiac puncture for all mice into EDTA microtainer collection tubes. Plasma was prepared from blood and stored at −80° C.
MCP-1 levels in mouse plasma were measured using U-PLEX MSD kit according to manufacturer's instructions. A single analysis was performed for each sample. Concentrations were determined relative to a standard calibration curve, and total analyte levels in pg/mL.
The MCP-1 data in pg/mL were normalized in GraphPad Prism 9.2 using the normalize function and entering the 0% and 100% inhibition control groups for the study. 0% inhibition was defined as mean MCP-1 pg/mL in MDP vehicle group, and 100% inhibition was defined as mean MCP-1 pg/mL in the unstimulated vehicle group.

[2] = single p.o. dose 10 mg/kg 1 h before i.p. MDP 8 mpk
[3] = single p.o. dose 3 mg/kg 1 h before i.p. MDP 8 mpk

Row | SMILES | IC50 (human NOD2 signaling) [nM] | % MCP-1 inhibition [1, 2] [%] | % MCP-1 inhibition [1, 3]
1 | CC(C)(C)n1cc(NC(=O)Cc2ccc(Oc3ccnc4ccc(S(C)(=O)=O)cc34)cc2F)cn1 [Compound 38, N-(1-(tert-butyl)-1H-pyrazol-4-yl)-2-(2-fluoro-4-((6-(methylsulfonyl)quinolin-4-yl)oxy)phenyl)acetamide] | 9 | 99 | –
2 | Cc1cc(CC(=O)Nc2cnn(C(C)(C)C)c2)ccc1Oc1ccnc2ccc(OC3CCNCC3)cc12 [Compound 83, N-(1-(tert-butyl)-1H-pyrazol-4-yl)-2-(3-methyl-4-((6-(piperidin-4-yloxy)quinolin-4-yl)oxy)phenyl) acetamide] | 5.9 | – | no effect
3 | Cc1cc(CC(=O)Nc2cnn(C(C)(C)C)c2)ccc1Oc1ccnc2ccc(S(C)(=O)=O)cc12 [Compound 86, N-(1-(tert-butyl)-1H-pyrazol-4-yl)-2-(3-methyl-4-((6-(methylsulfonyl)quinolin-4-yl)oxy)phenyl)acetamide] | 0.7 | – | 101%
4 | Cc1c(Oc2ccnc3ccc(S(C)(=O)=O)cc23)ccc(CC(=O)Nc2cnn(C(C)(C)C)c2)c1F [Compound 91, N-(1-(tert-butyl)-1H-pyrazol-4-yl)-2-(2-fluoro-3-methyl-4-((6-(methylsulfonyl)quinolin-4-yl)oxy)phenyl)acetamide] | 0.5 | – | 99%
5 | CCS(=O)(=O)c1ccc2nccc(Oc3ccc(CC(=O)Nc4cnn(C(C)(C)C)c4)cc3C)c2c1 [Compound 99, N-(1-(tert-butyl)-1H-pyrazol-4-yl)-2-(4-((6-(ethylsulfonyl)quinolin-4-yl)oxy)-3-methylphenyl)acetamide] | 0.3 | – | 111%
6 | Cc1cc(CC(=O)Nc2cnn(C(C)(C)C)c2)c(F)cc1Oc1ccnc2ccc(S(C)(=O)=O)cc12 [Compound 113, N-(1-(tert-butyl)-1H-pyrazol-4-yl)-2-(2-fluoro-5-methyl-4-((6-(methylsulfonyl)quinolin-4-yl)oxy)phenyl)acetamide] | 2.2 | 82 | –
7 | Cc1cc(CC(=O)Nc2cnn(C(C)(C)C)c2)c(F)cc1Oc1ccnc2ccc(C(N)=O)cc12 [Compound 359, 4-(4-(2-((1-(tert-butyl)-1H-pyrazol-4-yl)amino)-2-oxoethyl)-5-fluoro-2-methyl-phenoxy) quinoline-6-carboxamide] | 0.5 | 88 | –
8 | CNC(=O)c1ccc2nccc(Oc3cc(F)c(CC(=O)Nc4cnn(C(C)(C)C)c4)cc3C)c2c1 [Compound 360, 4-(4-(2-((1-(tert-butyl)-1H-pyrazol-4-yl)amino)-2-oxoethyl)-5-fluoro-2-methylphenoxy)-N-methylquinoline-6-carboxamide] | 0.2 | 93 | –
9 | Cc1cc(CC(=O)Nc2cnn(C(C)(C)C)c2)cc(C)c1Oc1ccnc2cc(F)c(C(N)=O)cc12 [Compound 581, 4-(4-(2-((1-(tert-butyl)-1H-pyrazol-4-yl)amino)-2-oxoethyl)-2,6-dimethylphenoxy)-7-fluoroquinoline-6-carboxamide] | 1.2 | – | 75%
